Read-outs that look alike come from different tables or passages of the source.
Key:
[1] = design: method as in Songvut et al. [2023b]; settings: AP dose corresponding to 60 mg of andrographolide; ref Songvut et al. [2023b]; cited from earlier work
[2] = Clinical pharmacokinetics, plasma LC-MS/MS after single oral dose of AP capsules; assay type: in vivo, human (healthy volunteers); settings: human, plasma; for concentration at 0 h / concentration at 0.5 h / concentration at 1 h / concentration at 1.5 h / concentration at 2 h / concentration at 2.5 h / concentration at 3 h / concentration at 3.5 h / concentration at 4 h / concentration at 5 h / concentration at 6 h / concentration at 8 h / concentration at 10 h / concentration at 12 h / concentration at 24 h: oral, 2000 mg, 2000 mg AP capsules; for concentration at 0.5 h: 0.50 h; for concentration at 1.5 h: 1.50 h; for concentration at 2.5 h: 2.50 h; for concentration at 3.5 h: 3.50 h
Procedure: The protocol was published (Tee et al. [2022]).
Seven calibrators ranging from 1, 2, 5,10, 20, 50, and 100 ng mL^−1 were prepared. Frozen plasma was thawed, vortexed-mixes, and processed via protein precipitation: 50 µL plasma plus 100 µL 0.01% ammonia in methanol were vortexed (20 s), centrifuged (14800 rpm, 5 min) and […] supernatant was transferred to 2 mL vials with inserts. LC–MS/MS injection volume: 10 µL. The separation used a Phenomenex Gemini-NX C18 column (150 × 2.1 mm, 5 μm) with 0.01% ammonia (A) and acetonitrile/methanol (1:1, B) as mobile phases (0.30 mL min^-1). The gradient program: 40% B (0 min), linear increase to 95% B (3 min), hold to 5 min, sharp decrease to 10% B (5.01 min), hold to 7 min, return to 40% B (7.01 min), and re-equilibration to 10 min. Mass detection employed an LCMS-8060NX triple quadrupole with heated ESI in negative mode, monitoring specific MRM transitions: andrographolide (349.3 → 331.2/287.1), 14-deoxyandrographolide (331.2 → 108.0/301.1), and neoandrographolide (479.1 → 317.4/161.1).
Pharmacokinetic parameters were determined from plasma samples (5 subjects, 15 time points) analyzed via LC–MS/MS (Shimadzu 8060NX). […] Specific MRM transitions for andrographolide, 14-deoxyandrographolide, and neoandrographolide in plasma samples of subjects are illustrated in Figure S3. […] The dose-dependent concentration–time curves, pharmacokinetics profiles (Fig. 2a, b and c) and comprehensive individual PK data (Table S4) provide a foundation for developing personalized AP dosing regimens, supporting its precision medicine potential.

[3] = S1, read-out: Plasma concentration
[4] = S2, read-out: Plasma concentration
[5] = S3, read-out: Plasma concentration
[6] = S4, read-out: Plasma concentration
[7] = S5, read-out: Plasma concentration
[8] = mean n=5, read-out: Mean concentration
[9] = 2000 mg AP capsules oral, fasting, n=5

concentration at 0 h [2, 3]: 0 ng/mL
concentration at 0.5 h [2, 3]: 13.2 ng/mL
concentration at 1 h [2, 3]: 21.3 ng/mL
concentration at 1.5 h [2, 3]: 41.4 ng/mL
concentration at 2 h [2, 3]: 32 ng/mL
concentration at 2.5 h [2, 3]: 19.7 ng/mL
concentration at 3 h [2, 3]: 24.1 ng/mL
concentration at 3.5 h [2, 3]: 22.2 ng/mL
concentration at 4 h [2, 3]: 6.67 ng/mL
concentration at 5 h [2, 3]: 11.3 ng/mL
concentration at 6 h [2, 3]: 4.57 ng/mL
concentration at 8 h [2, 3]: 0.97 ng/mL
concentration at 10 h [2, 3]: 0 ng/mL
concentration at 12 h [2, 3]: 0 ng/mL
concentration at 24 h [2, 3]: 0 ng/mL
concentration at 0 h [2, 4]: 0 ng/mL
concentration at 0.5 h [2, 4]: 0.77 ng/mL
concentration at 1 h [2, 4]: 45.3 ng/mL
concentration at 1.5 h [2, 4]: 43.7 ng/mL
concentration at 2 h [2, 4]: 28 ng/mL
concentration at 2.5 h [2, 4]: 21.7 ng/mL
concentration at 3 h [2, 4]: 36.5 ng/mL
concentration at 3.5 h [2, 4]: 15.1 ng/mL
concentration at 4 h [2, 4]: 12.8 ng/mL
concentration at 5 h [2, 4]: 16.2 ng/mL
concentration at 6 h [2, 4]: 5.29 ng/mL
concentration at 8 h [2, 4]: 1.69 ng/mL
concentration at 10 h [2, 4]: 0 ng/mL
concentration at 12 h [2, 4]: 0 ng/mL
concentration at 24 h [2, 4]: 0 ng/mL
concentration at 0 h [2, 5]: 0 ng/mL
concentration at 0.5 h [2, 5]: 82.9 ng/mL
concentration at 1 h [2, 5]: 75.6 ng/mL
concentration at 1.5 h [2, 5]: 50 ng/mL
concentration at 2 h [2, 5]: 24.3 ng/mL
concentration at 2.5 h [2, 5]: 13.1 ng/mL
concentration at 3 h [2, 5]: 7.05 ng/mL
concentration at 3.5 h [2, 5]: 0 ng/mL
concentration at 4 h [2, 5]: 0 ng/mL
concentration at 5 h [2, 5]: 0 ng/mL
concentration at 6 h [2, 5]: 0 ng/mL
concentration at 8 h [2, 5]: 0 ng/mL
concentration at 10 h [2, 5]: 0 ng/mL
concentration at 12 h [2, 5]: 0 ng/mL
concentration at 24 h [2, 5]: 0 ng/mL
concentration at 0 h [2, 6]: 0 ng/mL
concentration at 0.5 h [2, 6]: 1.9 ng/mL
concentration at 1 h [2, 6]: 41.1 ng/mL
concentration at 1.5 h [2, 6]: 109 ng/mL
concentration at 2 h [2, 6]: 78.2 ng/mL
concentration at 2.5 h [2, 6]: 53.9 ng/mL
concentration at 3 h [2, 6]: 43.9 ng/mL
concentration at 3.5 h [2, 6]: 33.5 ng/mL
concentration at 4 h [2, 6]: 21.9 ng/mL
concentration at 5 h [2, 6]: 20.6 ng/mL
concentration at 6 h [2, 6]: 11.9 ng/mL
concentration at 8 h [2, 6]: 2.08 ng/mL
concentration at 10 h [2, 6]: 0 ng/mL
concentration at 12 h [2, 6]: 0 ng/mL
concentration at 24 h [2, 6]: 0 ng/mL
concentration at 0 h [2, 7]: 0 ng/mL
concentration at 0.5 h [2, 7]: 15.4 ng/mL
concentration at 1 h [2, 7]: 27.1 ng/mL
concentration at 1.5 h [2, 7]: 48 ng/mL
concentration at 2 h [2, 7]: 86.8 ng/mL
concentration at 2.5 h [2, 7]: 65.8 ng/mL
concentration at 3 h [2, 7]: 59.5 ng/mL
concentration at 3.5 h [2, 7]: 31.1 ng/mL
concentration at 4 h [2, 7]: 18.5 ng/mL
concentration at 5 h [2, 7]: 9.61 ng/mL
concentration at 6 h [2, 7]: 4.65 ng/mL
concentration at 8 h [2, 7]: 1.35 ng/mL
concentration at 10 h [2, 7]: 0 ng/mL
concentration at 12 h [2, 7]: 0 ng/mL
concentration at 24 h [2, 7]: 0 ng/mL
concentration at 0 h [2, 8]: 0 ng/mL
concentration at 0.5 h [2, 8]: 22.8 ng/mL
concentration at 1 h [2, 8]: 42.1 ng/mL
concentration at 1.5 h [2, 8]: 58.5 ng/mL
concentration at 2 h [2, 8]: 49.9 ng/mL
concentration at 2.5 h [2, 8]: 34.9 ng/mL
concentration at 3 h [2, 8]: 34.2 ng/mL
concentration at 3.5 h [2, 8]: 20.4 ng/mL
concentration at 4 h [2, 8]: 12 ng/mL
concentration at 5 h [2, 8]: 11.5 ng/mL
concentration at 6 h [2, 8]: 5.28 ng/mL
concentration at 8 h [2, 8]: 1.22 ng/mL
concentration at 10 h [2, 8]: 0 ng/mL
concentration at 12 h [2, 8]: 0 ng/mL
concentration at 24 h [2, 8]: 0 ng/mL
AUC(0-inf) [2, 9]: 163 ng·h/mL
AUC(0-t) [2, 9]: 161 ng·h/mL
Cmax [2, 9]: 58.5 ng/mL
half-life [2, 9]: 55.8 min
Structure (SMILES): C=C1CC[C@@H]2[C@](C)(CO[C@@H]3O[C@H](CO)[C@@H](O)[C@H](O)[C@H]3O)CCC[C@@]2(C)[C@@H]1CCC1=CCOC1=O [neoandrographolide]
Cmax, previously reported [1]: 24.4 ± 5.6 ng/mL
Tmax, previously reported [1]: 54 min

Reference: paper PMC12935787, “Clinical pharmacokinetics and pharmacometabolomics of Andrographis paniculata capsules: Bridging drug disposition and metabolic response to precision medicine” (Naunyn-Schmiedeberg's Archives of Pharmacology, 2025)
